Data: US20260297085A1, “1 H-PYRROLO[2,3-B]PYRIDIN-4-YL]-2-OXOPYRROLIDINE-3-CARBONITRILE DERIVATIVES AS TYROSINE KINASE 2 (TYK2) INHIBITORS FOR THE TREATMENT OF INFLAMMATORY DISEASES” (BIOGEN MA INC., priority 2023, published 2026)
Where a name gives a salt, the structure may show the parent alone.

Assays:
[1] = target: T1, human JAK1 kinase domain (JH1) (Homo sapiens, UniProt P23458); experiment: JH1 biochemical assay for JAK1 (ADP-Glo kinase assay, recombinant JH1 catalytic domain, JAK3-342 peptide, 35 μM ATP)
T1 construct: recombinantly generated catalytic kinase (also known as JH1) domain of human JAK1, JAK2, JAK3 and TYK2
Description: (§1) Compounds of the disclosure were assessed for their ability to inhibit TYK2, JAK1, JAK2, and JAK3 activity. The inhibitory properties of the compounds of the disclosure described herein can be evidenced by testing in any one of the following protocols.
(§2) The kinase activity of recombinantly generated catalytic kinase (also known as JH1) domain of human JAK1, JAK2, JAK3 and TYK2 were evaluated in a plate-based assay using the ADP-Glo™ Kinase Assay platform. Specifically, 4 nM of recombinant JAK1 kinase domain is used to phosphorylate 50 μM of a JAK3-342 (sequence ALVDGYFRLTT) peptide in the presence of 35 μM ATP. Catalytic activities of recombinant JAK2, JAK3 and TYK2 kinase domain (0.2, 0.3 and 2 nM, respectively) are evaluated by the phosphorylation status of the JAK3-974 (50 μM; sequence LPLDKDYYVVR) peptide with the addition of ATP (15, 4 and 10 μM, respectively). The reactions proceed for 100 minutes and the catalytic activity is quantified by first depleting the unused ATP, converting the hydrolyzed ADP into ATP to generate luminescence in a luciferase reaction; which is the basis of the ADP-Glo platform. Compounds are tested at either 10 μM or 1 μM top concentration, 11 points of 3-fold dilution. The data is normalized and the percent activity versus log concentration of compound is fitted with a 4-parameter logistic model to generate a curve and an IC50 value.

[2] = target: T2, human JAK3 kinase domain (JH1) (Homo sapiens, UniProt P52333); experiment: JH1 biochemical assay for JAK3 (ADP-Glo kinase assay, recombinant JH1 catalytic domain, JAK3-974 peptide, 4 μM ATP)
T2 construct: recombinantly generated catalytic kinase (also known as JH1) domain of human JAK1, JAK2, JAK3 and TYK2
Description: as §1, §2

[3] = target: T3, human TYK2 kinase domain (JH1) (Homo sapiens, UniProt P29597); experiment: JH1 biochemical assay for TYK2 (ADP-Glo kinase assay, recombinant JH1 catalytic domain, JAK3-974 peptide, 10 μM ATP)
T3 construct: recombinantly generated catalytic kinase (also known as JH1) domain of human JAK1, JAK2, JAK3 and TYK2
T3 sequence (P29597 897-1176 limits assumed): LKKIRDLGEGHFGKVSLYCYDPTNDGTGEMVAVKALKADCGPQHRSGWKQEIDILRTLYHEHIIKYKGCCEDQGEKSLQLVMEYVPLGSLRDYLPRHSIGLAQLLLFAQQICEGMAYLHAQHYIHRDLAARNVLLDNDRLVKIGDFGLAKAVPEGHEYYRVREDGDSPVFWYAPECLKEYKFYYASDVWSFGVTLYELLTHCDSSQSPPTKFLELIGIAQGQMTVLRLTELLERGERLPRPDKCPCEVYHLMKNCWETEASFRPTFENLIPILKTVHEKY
Description: as §1, §2

[4] = target: T4, human JAK2 kinase domain (JH1) (Homo sapiens, UniProt O60674); experiment: JH1 biochemical assay for JAK2 (ADP-Glo kinase assay, recombinant JH1 catalytic domain, JAK3-974 peptide, 15 μM ATP)
T4 construct: recombinantly generated catalytic kinase (also known as JH1) domain of human JAK1, JAK2, JAK3 and TYK2
Description: as §1, §2

T2 sequence (P52333 822-1111 limits assumed): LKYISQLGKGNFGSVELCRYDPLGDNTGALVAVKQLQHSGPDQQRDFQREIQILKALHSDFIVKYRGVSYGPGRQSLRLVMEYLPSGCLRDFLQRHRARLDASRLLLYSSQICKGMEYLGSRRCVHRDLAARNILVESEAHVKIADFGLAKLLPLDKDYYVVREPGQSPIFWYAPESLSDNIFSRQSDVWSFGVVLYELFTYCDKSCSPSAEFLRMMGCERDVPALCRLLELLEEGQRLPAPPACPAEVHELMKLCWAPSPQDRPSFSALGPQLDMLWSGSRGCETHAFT
T1 sequence (P23458 875-1153 limits assumed): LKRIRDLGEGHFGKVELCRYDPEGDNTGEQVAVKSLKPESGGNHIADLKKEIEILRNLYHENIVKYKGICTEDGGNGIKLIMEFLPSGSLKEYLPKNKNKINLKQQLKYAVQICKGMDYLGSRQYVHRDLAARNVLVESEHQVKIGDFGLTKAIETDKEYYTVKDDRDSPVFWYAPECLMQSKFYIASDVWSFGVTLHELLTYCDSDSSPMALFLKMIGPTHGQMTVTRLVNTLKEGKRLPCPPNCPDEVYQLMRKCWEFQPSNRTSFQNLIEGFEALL
T4 sequence (O60674 849-1124 limits assumed): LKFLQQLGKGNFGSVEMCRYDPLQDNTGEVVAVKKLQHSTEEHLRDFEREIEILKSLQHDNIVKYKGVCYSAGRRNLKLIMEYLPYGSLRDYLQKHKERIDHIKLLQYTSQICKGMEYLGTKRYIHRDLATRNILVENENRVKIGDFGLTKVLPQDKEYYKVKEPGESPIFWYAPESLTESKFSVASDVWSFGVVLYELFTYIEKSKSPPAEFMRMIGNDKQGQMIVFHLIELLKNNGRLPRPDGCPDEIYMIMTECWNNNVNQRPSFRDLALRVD

SMILES	IC50 ([1]; JAK1 JH1, ADP-Glo)	IC50 ([2]; JAK3 JH1, ADP-Glo)	IC50 ([3]; TYK2 JH1, ADP-Glo)	IC50 ([4]; JAK2 JH1, ADP-Glo)	IC50 ([1]; JH1 kinase domain, ADP-Glo)	IC50 ([2]; JH1 kinase domain, ADP-Glo)	IC50 ([3]; JH1 kinase domain, ADP-Glo)	IC50 ([4]; JH1 kinase domain, ADP-Glo)
C[C@@H]1CN(c2nc(-c3ccc(C(F)(F)F)nc3)cn3nccc23)C(=O)[C@]1(C#N)C1CC1 [Example 238, (3R,4S)-3-cyclopropyl-4-methyl-2-oxo-1-(6-(6-(trifluoromethyl)pyridin-3-yl)pyrazolo[1,5-a]pyrazin-4-yl)pyrrolidine-3-carbonitrile trifluoroacetate]	> 10 µM	> 10000 nM	> 100 nM	> 10 µM				
C[C@@H]1CN(c2ccnn3cc(-c4cccc(CC#N)n4)cc23)C(=O)[C@]1(C#N)C1CC1 [Example 125, (3R,4S)-1-(6-(6-(cyanomethyl)pyridin-2-yl)pyrrolo[1,2-b]pyridazin-4-yl)-3-cyclopropyl-4-methyl-2-oxopyrrolidine-3-carbonitrile trifluoroacetate]					0.1 to 1 µM	100 to 1000 nM	20 to 50 nM	0.1 to 1 µM
C[C@@H]1CN(c2nc(-c3cncc(Cl)c3)cn3nccc23)C(=O)[C@]1(C#N)C1CC1 [Example 248, (3R,4S)-1-(6-(5-chloropyridin-3-yl)pyrazolo[1,5-a]pyrazin-4-yl)-3-cyclopropyl-4-methyl-2-oxopyrrolidine-3-carbonitrile trifluoroacetate]	0.1 to 1 µM	1000 to 5000 nM	20 to 50 nM	1 to 5 µM				
C[C@@H]1CN(c2ccnn3cc(-c4ncccc4F)cc23)C(=O)[C@]1(C#N)C1CC1 [Example 138, (3R,4S)-3-cyclopropyl-1-(6-(3-fluoropyridin-2-yl)pyrrolo[1,2-b]pyridazin-4-yl)-4-methyl-2-oxopyrrolidine-3-carbonitrile trifluoroacetate]					0.1 to 1 µM	1000 to 5000 nM	20 to 50 nM	> 10 µM
C[C@@H]1CN(c2cc(-c3cnn(C)c3)cc3nccn23)C(=O)[C@]1(C#N)C1CC1 [Example 287, (3R,4S)-3-cyclopropyl-4-methyl-1-(7-(1-methyl-1H-pyrazol-4-yl)imidazo[1,2-a]pyridin-5-yl)-2-oxopyrrolidine-3-carbonitrile]	> 10 µM	> 10000 nM	> 100 nM	> 10 µM				
CC[C@H]1CN(c2ccnn3cc(-c4cnn(C)c4)cc23)C(=O)[C@]1(C#N)C1CC1 [Example 24, (3R,4R)-3-cyclopropyl-4-ethyl-1-(6-(1-methyl-1H-pyrazol-4-yl)pyrrolo[1,2-b]pyridazin-4-yl)-2-oxopyrrolidine-3-carbonitrile]					5 to 10 µM	> 10000 nM	> 100 nM	5 to 10 µM
COc1ccnc(-c2cc3c(N4C[C@@H](C)[C@@](C#N)(C5CC5)C4=O)ccnn3c2)n1 [Example 122, (3R,4S)-3-cyclopropyl-1-(6-(4-methoxypyrimidin-2-yl)pyrrolo[1,2-b]pyridazin-4-yl)-4-methyl-2-oxopyrrolidine-3-carbonitrile trifluoroacetate]					5 to 10 µM	> 10000 nM	> 100 nM	> 10 µM
Cn1cc(-c2cc3c(N4CC[C@@](CC#N)(C5CC5)C4=O)ccnn3c2)cn1 [Example 27, (R)-2-(3-cyclopropyl-1-(6-(1-methyl-1H-pyrazol-4-yl)pyrrolo[1,2-b]pyridazin-4-yl)-2-oxopyrrolidin-3-yl)acetonitrile]					1 to 5 µM	1000 to 5000 nM	> 100 nM	1 to 5 µM
COc1ccc(-c2cn3nccc3c(N3C[C@@H](C)[C@@](C#N)(C4CC4)C3=O)n2)cn1 [Example 224, (3R,4S)-3-cyclopropyl-1-(6-(6-methoxypyridin-3-yl)pyrazolo[1,5-a]pyrazin-4-yl)-4-methyl-2-oxopyrrolidine-3-carbonitrile]	0.1 to 1 µM	1000 to 5000 nM	20 to 50 nM	1 to 5 µM				
Cc1nn(C)c(C)c1-c1cn2nccc2c(N2C[C@@H](C)[C@@](C#N)(C3CC3)C2=O)n1 [Example 200, (3R,4S)-3-cyclopropyl-4-methyl-2-oxo-1-(6-(1,3,5-trimethyl-1H-pyrazol-4-yl)pyrazolo[1,5-a]pyrazin-4-yl)pyrrolidine-3-carbonitrile]					0.1 to 1 µM	100 to 1000 nM	20 to 50 nM	1 to 5 µM
C[C@@H]1CN(c2ccnn3cc(-c4cncn4C)cc23)C(=O)[C@]1(C#N)C1CC1 [Example 89, (3R,4S)-3-cyclopropyl-4-methyl-1-(6-(1-methyl-1H-imidazol-5-yl)pyrrolo[1,2-b]pyridazin-4-yl)-2-oxopyrrolidine-3-carbonitrile]					1 to 5 µM	1000 to 5000 nM	20 to 50 nM	1 to 5 µM
COc1cc(-c2cn3nccc3c(N3C[C@@H](C)[C@@](C#N)(C4CC4)C3=O)n2)ccn1 [Example 231, (3R,4S)-3-cyclopropyl-1-(6-(2-methoxy-pyridin-4-yl)pyrazolo[1,5-a]pyrazin-4-yl)-4-methyl-2-oxopyrrolidine-3-carbonitrile trifluoroacetate]	> 10 µM	> 10000 nM	> 100 nM	> 10 µM				
CCc1ncccc1-c1cc2c(N3C[C@@H](C)[C@@](C#N)(C4CC4)C3=O)ccnn2c1 [Example 178, (3R,4S)-3-cyclopropyl-1-(6-(2-ethylpyridin-3-yl)pyrrolo[1,2-b]pyridazin-4-yl)-4-methyl-2-oxopyrrolidine-3-carbonitrile trifluoroacetate]					5 to 10 µM	5000 to 10000 nM	> 100 nM	> 10 µM
Cc1cnn(-c2cc3nccc(N4C[C@@H](C)[C@@](C#N)(C5CC5)C4=O)c3o2)c1 [Example 345, (3R,4S)-3-cyclopropyl-4-methyl-1-(2-(4-methyl-1H-pyrazol-1-yl)furo[3,2-b]pyridin-7-yl)-2-oxopyrrolidine-3-carbonitrile]	1 to 5 µM	1000 to 5000 nM	20 to 50 nM	1 to 5 µM				
CCc1ccncc1-c1cc2c(N3C[C@@H](C)[C@@](C#N)(C4CC4)C3=O)ccnn2c1 [Example 175, (3R,4S)-3-cyclopropyl-1-(6-(4-ethylpyridin-3-yl)pyrrolo[1,2-b]pyridazin-4-yl)-4-methyl-2-oxopyrrolidine-3-carbonitrile trifluoroacetate]					5 to 10 µM	> 10000 nM	> 100 nM	> 10 µM
C[C@@H]1CN(c2nc(-c3cccc(F)n3)cn3nccc23)C(=O)[C@]1(C#N)C1CC1 [Example 255, (3R,4S)-3-cyclopropyl-1-(6-(6-fluoropyridin-2-yl)pyrazolo[1,5-a]pyrazin-4-yl)-4-methyl-2-oxopyrrolidine-3-carbonitrile trifluoroacetate]	< 0.1 µM	100 to 1000 nM	20 to 50 nM	> 10 µM				
C[C@@H]1CN(c2ccnn3cc(-n4ccccc4=O)cc23)C(=O)[C@]1(C#N)C1CC1 [Example 340, (3R,4S)-3-cyclopropyl-4-methyl-2-oxo-1-(6-(2-oxopyridin-1(2H)-yl)pyrrolo[1,2-b]pyridazin-4-yl)pyrrolidine-3-carbonitrile]	> 10 µM	1000 to 5000 nM	> 100 nM	> 10 µM				
Cn1cc(-c2cc3c(N4CC[C@@](C#N)(C5CCC5)C4=O)ccnn3c2)cn1 (single isomer, unassigned) [Example 46]					5 to 10 µM	100 to 1000 nM	> 100 nM	1 to 5 µM
C[C@@H]1CN(c2ccnn3cc(-c4nc(C#N)cs4)cc23)C(=O)[C@]1(C#N)C1CC1 [Example 114, 2-(4-((3R,4S)-3-cyano-3-cyclopropyl-4-methyl-2-oxopyrrolidin-1-yl)pyrrolo[1,2-b]pyridazin-6-yl)thiazole-4-carbonitrile trifluoroacetate]					> 10 µM	1000 to 5000 nM	20 to 50 nM	> 10 µM
CC(O)c1ccc(-c2cc3c(N4C[C@@H](C)[C@@](C#N)(C5CC5)C4=O)ccnn3c2)nc1 (stereo partly drawn) [Example 130, (3R,4S)-3-cyclopropyl-1-(6-(5-(1-hydroxyethyl)pyridin-2-yl)pyrrolo[1,2-b]pyridazin-4-yl)-4-methyl-2-oxopyrrolidine-3-carbonitrile trifluoroacetate]					0.1 to 1 µM	100 to 1000 nM	5 to 20 nM	0.1 to 1 µM
C[C@@H]1CN(c2ncnc3cc(-c4cnn(C)c4)sc23)C(=O)[C@]1(C#N)C1CC1 [Example 286, (3R,4S)-3-cyclopropyl-4-methyl-1-(6-(1-methyl-1H-pyrazol-4-yl)thieno[3,2-d]pyrimidin-4-yl)-2-oxopyrrolidine-3-carbonitrile]	> 10 µM	> 10000 nM	> 100 nM	1 to 5 µM				
